For the assay, the system named is Rabbit Renal Artery. The experiment in a line: Vasorelaxant relative potency, rabbit renal artery. The assay is classed as cell-based.

Structures are written as SMILES. Where a SMILES comes first, the peptide text is derived from it. Bridges are numbered along the chain shown (N, C = ends).

Consider `CC[C@H](C)[C@@H]1NC(=O)[C@H](CCCNC(=N)N)NC(=O)[C@H](CC(=O)O)NC(=O)[C@H]([C@@H](C)CC)NC(=O)[C@H](CCCNC(=N)N)NC(=O)CNC(=O)CNC(=O)[C@H](Cc2ccccc2)NC(=O)[C@@H](N)CSSC[C@@H](C(=O)N[C@@H](CC(N)=O)C(=O)N[C@@H](CO)C(=O)N2CCC[C@H]2C(=O)N[C@@H](CCCNC(=N)N)C(N)=O)NC(=O)CNC(=O)[C@H](CC(C)C)NC(=O)CNC(=O)[C@H](CO)NC(=O)[C@H](CCC(N)=O)NC(=O)[C@H](C)NC(=O)CNC1=O` [Structure 23, PROLINE-26 ANF (7-27) amide] (H-CFGGRIDRIGAQSGLGCNSPR-NH2; disulfide 1-17), for which, for the setting “Table 1, (3-28) analogs, relative to sequence I = 1”, the “Vasorelaxant Relative Potency Rabbit Renal Artery” value is recorded as 3.3.

Regarding `CC[C@H](C)[C@@H]1NC(=O)[C@H](CCCNC(=N)N)NC(=O)[C@H](CC(=O)O)NC(=O)[C@H]([C@@H](C)CC)NC(=O)[C@H](CCCNC(=N)N)NC(=O)CNC(=O)CNC(=O)[C@H](Cc2ccccc2)NC(=O)[C@@H](N)CSSC[C@@H](C(=O)N[C@@H](CC(N)=O)C(=O)N[C@@H](CO)C(=O)N2CCC[C@H]2C(=O)N[C@@H](CCCNC(=N)N)C(N)=O)NC(=O)CNC(=O)[C@H](CC(C)C)NC(=O)CNC(=O)[C@H](CO)NC(=O)[C@H](CCC(N)=O)NC(=O)[C@H](C)NC(=O)CNC1=O` [Structure 23] (H-CFGGRIDRIGAQSGLGCNSPR-NH2; disulfide 1-17), the “Vasorelaxant Relative Potency Rabbit Renal Artery” value (Table 2, (7-27)-NH2 analogs, relative to I (7-27)-NH2 = 1) amounted to 3.86.
